# Columns and labels:
# [1] = biological target: T1, KRas-mediated phosphorylation of ERK in MKN1 cells (Homo sapiens, UniProt P01116); assay: Inhibition of KRas-mediated phosphorylation of ERK (HTRF), MKN1 cells; format: cell-based; details: MKN1 cells (KRas WT); HTRF pERK; 3 h incubation
# T1 construct: pERK HTRF read-out
# Method: Inhibition of KRas Phosphorylation of ERK (HTRF) by Exemplary Compounds of Formula (Ia) or (Ib)
# Cisbio HTRF Advanced pERK Assay Catalog #64AERPEH • Cells: MKN1, PSN1 • Procedure: • 1. Day 1: Seed 6,000 cells/well −25 μl/well in 384-well white solid bottom plate; RPM1_10% FBS. Incubate overnight at 37 °C/5% CO2. • 2.
# [2] = biological target: T2, KRas-mediated phosphorylation of ERK in A549 cells (Homo sapiens, UniProt P01116, G12S); assay: Inhibition of KRas-mediated phosphorylation of ERK (HTRF), A549 cells; format: cell-based; details: HTRF pERK, 3 h incubation
# T2 construct: pERK HTRF read-out
# T2 sequence (P01116 1-188 isoform P01116-2 G12S): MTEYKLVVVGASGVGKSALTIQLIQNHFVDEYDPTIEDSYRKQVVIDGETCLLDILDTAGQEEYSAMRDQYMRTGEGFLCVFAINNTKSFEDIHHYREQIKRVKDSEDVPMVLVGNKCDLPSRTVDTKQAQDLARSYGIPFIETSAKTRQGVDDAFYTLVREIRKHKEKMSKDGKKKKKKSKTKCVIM
# KRas G12C = biological target: T3, KRas G12C (Homo sapiens, UniProt P01116, G12C); assay: KRas binding assay, TR-FRET displacement of Cy5 labelled tracer; details: 60-minute incubation at room temperature, 1% DMSO, pH 7.5
# T3 construct: Biotinylated KRas (corresponding to amino acids 1-169, produced at Accelegan Inc.); biotin (biotinylated); purchased Accelegan Inc
# T3 sequence (P01116 1-169 isoform P01116-2 G12C): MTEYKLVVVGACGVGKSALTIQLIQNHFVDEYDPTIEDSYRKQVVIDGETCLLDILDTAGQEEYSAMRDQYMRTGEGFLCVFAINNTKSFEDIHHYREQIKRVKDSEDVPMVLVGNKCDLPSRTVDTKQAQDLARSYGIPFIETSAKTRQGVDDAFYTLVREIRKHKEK
# In short: (§1)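 Biotinylated KRas (residues 1-169) was incubated with tracer, terbium-streptavidin and compound at 1% DMSO final in 50 mM HEPES pH 7.5 containing 5 mM MgCl2, 0.005% Tween-20 and 1 mM DTT. The plate was read after 60 min at room temperature, and percent-of-control data were fit to a 4-parameter IC50 equation.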
# KRas WT = biological target: T4, KRas WT (Homo sapiens, UniProt P01116); assay: as above; details: 60-minute incubation at room temperature, 1% DMSO, pH 7.5
# T4 construct: Biotinylated KRas (corresponding to amino acids 1-169, produced at Accelegan Inc.); biotin (biotinylated); purchased Accelegan Inc
# T4 sequence (P01116 1-169 isoform P01116-2): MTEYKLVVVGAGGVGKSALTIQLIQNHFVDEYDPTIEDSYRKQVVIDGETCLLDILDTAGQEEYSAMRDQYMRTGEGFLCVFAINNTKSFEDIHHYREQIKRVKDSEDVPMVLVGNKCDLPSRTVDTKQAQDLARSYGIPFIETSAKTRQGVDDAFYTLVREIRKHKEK
# In short: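 Truncated KRas (1-169), biotinylated, Tb-streptavidin donor; one-hour room-temperature incubation; IC50 by four-parameter curve fitting.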
# KRas G12S = biological target: T5, KRas G12S (Homo sapiens, UniProt P01116, G12S); assay: as above; details: 60-minute incubation at room temperature, 1% DMSO, pH 7.5
# T5 construct: Biotinylated KRas (corresponding to amino acids 1-169, produced at Accelegan Inc.); biotin (biotinylated); purchased Accelegan Inc
# T5 sequence (P01116 1-169 isoform P01116-2 G12S): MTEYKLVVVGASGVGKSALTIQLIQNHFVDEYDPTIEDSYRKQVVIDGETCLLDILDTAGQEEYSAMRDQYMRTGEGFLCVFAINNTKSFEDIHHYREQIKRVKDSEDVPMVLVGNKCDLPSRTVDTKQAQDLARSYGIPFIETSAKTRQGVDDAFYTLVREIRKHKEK
# In short: as §1
# [3] = biological target: T6, KRas-mediated phosphorylation of ERK in H358 cells (Homo sapiens, UniProt P01116, G12C); assay: Inhibition of KRas-mediated phosphorylation of ERK (HTRF), H358 cells; format: cell-based; details: HTRF pERK, 3 h incubation
# T6 construct: pERK HTRF read-out
# T6 sequence (P01116 1-188 isoform P01116-2 G12C): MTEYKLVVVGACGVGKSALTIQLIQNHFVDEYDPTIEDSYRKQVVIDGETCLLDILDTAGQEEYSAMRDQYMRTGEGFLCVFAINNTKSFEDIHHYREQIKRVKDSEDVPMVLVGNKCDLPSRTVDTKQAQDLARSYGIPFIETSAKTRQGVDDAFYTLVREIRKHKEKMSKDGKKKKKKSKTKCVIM
# T1 sequence (P01116 1-188 isoform P01116-2): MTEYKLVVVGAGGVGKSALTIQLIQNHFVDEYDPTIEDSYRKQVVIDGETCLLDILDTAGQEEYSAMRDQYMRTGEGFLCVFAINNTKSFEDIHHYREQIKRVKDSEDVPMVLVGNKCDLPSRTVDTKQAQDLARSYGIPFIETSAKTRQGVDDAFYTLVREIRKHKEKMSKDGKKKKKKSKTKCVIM
IC50 [1],IC50 [2],IC50 (KRas G12C),IC50 (KRas WT),IC50 (KRas G12S),IC50 [3],SMILES
388 nM,1180 nM,4 nM,9 nM,6 nM,411 nM,"CN(CCCC(=O)Nc1ccncc1)c1nc(OC[C@@]23CCCN2C[C@H](F)C3)nc2c(F)c(-c3ccc(F)c4sc(N)c(C#N)c34)c(Cl)cc12 [Example 269, 4-((7-(2-amino-3-cyano-7-fluorobenzo[b]thiophen-4-yl)-6-chloro-8-fluoro-2-(((2R,7aS)-2-fluorotetrahydro-1H-pyrrolizin-7a(5H)-yl)methoxy)quinazolin-4-yl)(methyl)amino)-N-(pyridin-4-yl) butanamide]"
1250 nM,227 nM,2 nM,9 nM,4 nM,1110 nM,"Cc1ccn(C(=O)CCNc2nc(OC[C@@]34CCCN3C[C@H](F)C4)nc3c(F)c(-c4ccc(F)c5sc(N)c(C#N)c45)c(Cl)cc23)n1 [Example 177, 2-amino-4-(6-chloro-8-fluoro-2-(((2R,7aS)-2-fluorotetrahydro-1H-pyrrolizin-7a(5H)-yl)methoxy)-4-((3-(3-methyl-1H-pyrazol-1-yl)-3-oxopropyl)amino)quinazolin-7-yl)-7-fluorobenzo[b]thiophene-3-carbonitrile]"
844 nM,271 nM,3 nM,35 nM,12 nM,370 nM,"CN(CCCC(=O)Oc1c(F)cccc1F)c1nc(OC[C@@]23CCCN2C[C@H](F)C3)nc2c(F)c(-c3ccc(F)c4sc(N)c(C#N)c34)c(Cl)cc12 [Example 265, 2,6-difluorophenyl 4-((7-(2-amino-3-cyano-7-fluorobenzo[b]thiophen-4-yl)-6-chloro-8-fluoro-2-(((2R,7aS)-2-fluorotetrahydro-1H-pyrrolizin-7a(5H)-yl)methoxy)quinazolin-4-yl)(methyl)amino)butanoate]"
60 nM,3 nM,5 nM,12 nM,4 nM,3 nM,"CC(=O)N(C)C(=O)C(C)CCN(C)c1nc(OC[C@@]23CCCN2C[C@H](F)C3)nc2c(F)c(-c3ccc(F)c4sc(N)c(C#N)c34)c(Cl)cc12 (stereo partly drawn) [Example 304, N-acetyl-4-((7-(2-amino-3-cyano-7-fluorobenzo[b]thiophen-4-yl)-6-chloro-8-fluoro-2-(((2R,7aS)-2-fluorotetrahydro-1H-pyrrolizin-7a(5H)-yl)methoxy)quinazolin-4-yl)(methyl)amino)-N,2-dimethylbutanamide]"
387 nM,1180 nM,< 2 nM,8 nM,5 nM,10 nM,"CN(CCNC(=O)n1nccn1)c1nc(OC[C@@]23CCCN2C[C@H](F)C3)nc2c(F)c(-c3ccc(F)c4sc(N)c(C#N)c34)c(Cl)cc12 [Example 213, N-(2-((7-(2-amino-3-cyano-7-fluorobenzo[b]thiophen-4-yl)-6-chloro-8-fluoro-2-(((2R,7aS)-2-fluorotetrahydro-1H-pyrrolizin-7a(5H)-yl)methoxy)quinazolin-4-yl)(methyl)amino)ethyl)-2H-1,2,3-triazole-2-carboxamide]"
2420 nM,334 nM,502 nM,483 nM,266 nM,1420 nM,"CCc1c(F)ccc2cc(O)cc(-c3ncc4c(N5CCCC(C(=O)n6ccc(C)n6)CCC5)nc(OC[C@@]56CCCN5C[C@H](F)C6)nc4c3F)c12 [Example 54, (1-(7-(8-ethyl-7-fluoro-3-hydroxynaphthalen-1-yl)-8-fluoro-2-(((2R,7aS)-2-fluorotetrahydro-1H-pyrrolizin-7a(5H)-yl)methoxy)pyrido[4,3-d]pyrimidin-4-yl)azocan-5-yl)(3-methyl-1H-pyrazol-1-yl)methanone]"
4 nM,59 nM,3 nM,4 nM,3 nM,14 nM,"CN1CC2(CCN(c3nc(OC[C@@]45CCCN4C[C@H](F)C5)nc4c(F)c(-c5ccc(F)c6sc(N)c(C#N)c56)c(Cl)cc34)CC2)C1=O [Example 303, 2-amino-4-(6-chloro-8-fluoro-2-(((2R,7aS)-2-fluorotetrahydro-1H-pyrrolizin-7a(5H)-yl)methoxy)-4-(2-methyl-1-oxo-2,7-diazaspiro[3.5]nonan-7-yl)quinazolin-7-yl)-7-fluorobenzo[b]thiophene-3-carbonitrile]"
2990 nM,1170 nM,107 nM,790 nM,402 nM,1410 nM,"CCc1c(F)ccc2cc(O)cc(-c3ncc4c(N5CCC(C)(C(=O)n6ccc(C)n6)CC5)nc(OC[C@@]56CCCN5C[C@H](F)C6)nc4c3F)c12 [Example 83, (1-(7-(8-ethyl-7-fluoro-3-hydroxynaphthalen-1-yl)-8-fluoro-2-(((2R,7aS)-2-fluorotetrahydro-1H-pyrrolizin-7a(5H)-yl)methoxy)pyrido[4,3-d]pyrimidin-4-yl)-4-methylpiperidin-4-yl)(3-methyl-1H-pyrazol-1-yl)methanone]"
4500 nM,119 nM,13 nM,32 nM,40 nM,4600 nM,"CCc1c(F)ccc2cc(O)cc(-c3ncc4c(N5CCC(C(=O)n6cc(N(C)C)cn6)CC5)nc(OC[C@@]56CCCN5C[C@H](F)C6)nc4c3F)c12 [Example 64, (4-(dimethylamino)-1H-pyrazol-1-yl)(1-(7-(8-ethyl-7-fluoro-3-hydroxynaphthalen-1-yl)-8-fluoro-2-(((2R,7aS)-2-fluorotetrahydro-1H-pyrrolizin-7a(5H)-yl)methoxy)pyrido[4,3-d]pyrimidin-4-yl)piperidin-4-yl)methanone]"
236 nM,410 nM,5 nM,10 nM,9 nM,58 nM,"CN(CCCC(=O)N(C)c1cccnc1)c1nc(OC[C@@]23CCCN2C[C@H](F)C3)nc2c(F)c(-c3ccc(F)c4sc(N)c(C#N)c34)c(Cl)cc12 [Example 266, 4-((7-(2-amino-3-cyano-7-fluorobenzo[b]thiophen-4-yl)-6-chloro-8-fluoro-2-(((2R,7aS)-2-fluorotetrahydro-1H-pyrrolizin-7a(5H)-yl)methoxy)quinazolin-4-yl)(methyl)amino)-N-methyl-N-(pyridin-3-yl) butanamide]"
1390 nM,6650 nM,22 nM,238 nM,66 nM,34 nM,"CCc1c(F)ccc2cc(O)cc(-c3ncc4c(N(C)CCN(C)C(=O)n5nccn5)nc(OC[C@@]56CCCN5C[C@H](F)C6)nc4c3F)c12 (single isomer, unassigned) [Example 207]"
2060 nM,223 nM,124 nM,166 nM,150 nM,4720 nM,"CCc1c(F)ccc2cc(O)cc(-c3ncc4c(N5CCC(C(=O)n6ccc(C(C)C)n6)CC5)nc(OC[C@@]56CCCN5C[C@H](F)C6)nc4c3F)c12 [Example 76, (1-(7-(8-ethyl-7-fluoro-3-hydroxynaphthalen-1-yl)-8-fluoro-2-(((2R,7aS)-2-fluorotetrahydro-1H-pyrrolizin-7a(5H)-yl)methoxy)pyrido[4,3-d]pyrimidin-4-yl)piperidin-4-yl)(3-isopropyl-1H-pyrazol-1-yl)methanone]"
178 nM,8 nM,11 nM,15 nM,3 nM,22 nM,"COc1ccn(C(=O)C2CCCN(c3nc(OC[C@@]45CCCN4C[C@H](F)C5)nc4c(F)c(-c5ccc(F)c6sc(N)c(C#N)c56)c(Cl)cc34)CC2)n1 (stereo partly drawn) [Example 140, 2-amino-4-(6-chloro-8-fluoro-2-(((2R,7aS)-2-fluorotetrahydro-1H-pyrrolizin-7a(5H)-yl)methoxy)-4-(4-(3-methoxy-1H-pyrazole-1-carbonyl)azepan-1-yl)quinazolin-7-yl)-7-fluorobenzo[b]thiophene-3-carbonitrile]"
5020 nM,741 nM,2250 nM,2730 nM,1290 nM,8660 nM,"CCc1c(F)ccc2cc(O)cc(-c3ncc4c(N5C[C@H]6C[C@@H](C(=O)n7ccc(C)n7)[C@H]6C5)nc(OC[C@@]56CCCN5C[C@H](F)C6)nc4c3F)c12 [Example 210, ((1S,5S,6R)-3-(7-(8-ethyl-7-fluoro-3-hydroxynaphthalen-1-yl)-8-fluoro-2-(((2R,7aS)-2-fluorotetrahydro-1H-pyrrolizin-7a(5H)-yl)methoxy)pyrido[4,3-d]pyrimidin-4-yl)-3-azabicyclo[3.2.0]heptan-6-yl)(3-methyl-1H-pyrazol-1-yl)methanone]"

# Reference: patent US20260356856A1, “KRAS G12S AND G12C INHIBITORS” (MIRATI THERAPEUTICS, INC., priority 2023, published 2026)
